Assay results from ChEMBL document CHEMBL5241080, “Quinoline anticancer agents active on DNA and DNA-interacting proteins: From classical to emerging therapeutic targets” (Eur J Med Chem, 2021).
pIC50: −log10 of the molar value.

How the values were obtained:
HepG2 = test: Cytotoxicity against human HepG2 cells; format: functional, cell-based
T-24 = test: Cytotoxicity against human T24 cells; format: functional, cell-based
NCI-H460 [1] = test: Cytotoxicity against human NCI-H460 cells; format: functional, cell-based
MGC-803 = test: Cytotoxicity against human MGC-803 cells; format: functional, cell-based
SW480 = test: Cytotoxicity against human SW480 cells by MTT assay; format: functional
C-33-A = test: Cytotoxicity against human C-33-A cells by MTT assay; format: functional
[2] = Cytotoxicity against human CAL1 cells by MTT assay; format: functional
K-562R = test: Cytotoxicity against human K-562R cells by MTT assay; format: functional
SW-620 = test: Cytotoxicity against human SW620 cells by MTT assay; format: functional
HeLa [3] = test: Cytotoxicity against human HeLa cells by MTT assay; format: functional
MCF7 [4] = test: Cytotoxicity against human MCF7 cells by MTT assay; format: functional
[5] = Oral bioavailability CD-1 mouse at 30 mg/kg; format: ADME, organism-based; details: in vivo
M14 = test: Antiproliferative activity against human M14 cells assessed as reduction cell viability incubated for 48 hrs by MTT assay; format: functional, cell-based; details: M14, 48 h
NCI-H1299 = test: Antiproliferative activity against human NCI-H1299 cells assessed as reduction cell viability incubated for 48 hrs by MTT assay; format: functional, cell-based; details: NCI-H1299, 48 h
U-937 = test: Antiproliferative activity against human U-937 cells assessed as reduction cell viability incubated for 48 hrs by MTT assay; format: functional, cell-based; details: U-937, 48 h
MCF7 [6] = test: Antiproliferative activity against human MCF7 cells assessed as reduction cell viability incubated for 48 hrs by MTT assay; format: functional, cell-based; details: MCF7, 48 h
[7] = target: T1, DNA (cytosine-5)-methyltransferase 1 (Homo sapiens, UniProt P26358); test: Inhibition of his-tagged human DNMT1 by scintillation counter analysis
T1 sequence (P26358 whole entry): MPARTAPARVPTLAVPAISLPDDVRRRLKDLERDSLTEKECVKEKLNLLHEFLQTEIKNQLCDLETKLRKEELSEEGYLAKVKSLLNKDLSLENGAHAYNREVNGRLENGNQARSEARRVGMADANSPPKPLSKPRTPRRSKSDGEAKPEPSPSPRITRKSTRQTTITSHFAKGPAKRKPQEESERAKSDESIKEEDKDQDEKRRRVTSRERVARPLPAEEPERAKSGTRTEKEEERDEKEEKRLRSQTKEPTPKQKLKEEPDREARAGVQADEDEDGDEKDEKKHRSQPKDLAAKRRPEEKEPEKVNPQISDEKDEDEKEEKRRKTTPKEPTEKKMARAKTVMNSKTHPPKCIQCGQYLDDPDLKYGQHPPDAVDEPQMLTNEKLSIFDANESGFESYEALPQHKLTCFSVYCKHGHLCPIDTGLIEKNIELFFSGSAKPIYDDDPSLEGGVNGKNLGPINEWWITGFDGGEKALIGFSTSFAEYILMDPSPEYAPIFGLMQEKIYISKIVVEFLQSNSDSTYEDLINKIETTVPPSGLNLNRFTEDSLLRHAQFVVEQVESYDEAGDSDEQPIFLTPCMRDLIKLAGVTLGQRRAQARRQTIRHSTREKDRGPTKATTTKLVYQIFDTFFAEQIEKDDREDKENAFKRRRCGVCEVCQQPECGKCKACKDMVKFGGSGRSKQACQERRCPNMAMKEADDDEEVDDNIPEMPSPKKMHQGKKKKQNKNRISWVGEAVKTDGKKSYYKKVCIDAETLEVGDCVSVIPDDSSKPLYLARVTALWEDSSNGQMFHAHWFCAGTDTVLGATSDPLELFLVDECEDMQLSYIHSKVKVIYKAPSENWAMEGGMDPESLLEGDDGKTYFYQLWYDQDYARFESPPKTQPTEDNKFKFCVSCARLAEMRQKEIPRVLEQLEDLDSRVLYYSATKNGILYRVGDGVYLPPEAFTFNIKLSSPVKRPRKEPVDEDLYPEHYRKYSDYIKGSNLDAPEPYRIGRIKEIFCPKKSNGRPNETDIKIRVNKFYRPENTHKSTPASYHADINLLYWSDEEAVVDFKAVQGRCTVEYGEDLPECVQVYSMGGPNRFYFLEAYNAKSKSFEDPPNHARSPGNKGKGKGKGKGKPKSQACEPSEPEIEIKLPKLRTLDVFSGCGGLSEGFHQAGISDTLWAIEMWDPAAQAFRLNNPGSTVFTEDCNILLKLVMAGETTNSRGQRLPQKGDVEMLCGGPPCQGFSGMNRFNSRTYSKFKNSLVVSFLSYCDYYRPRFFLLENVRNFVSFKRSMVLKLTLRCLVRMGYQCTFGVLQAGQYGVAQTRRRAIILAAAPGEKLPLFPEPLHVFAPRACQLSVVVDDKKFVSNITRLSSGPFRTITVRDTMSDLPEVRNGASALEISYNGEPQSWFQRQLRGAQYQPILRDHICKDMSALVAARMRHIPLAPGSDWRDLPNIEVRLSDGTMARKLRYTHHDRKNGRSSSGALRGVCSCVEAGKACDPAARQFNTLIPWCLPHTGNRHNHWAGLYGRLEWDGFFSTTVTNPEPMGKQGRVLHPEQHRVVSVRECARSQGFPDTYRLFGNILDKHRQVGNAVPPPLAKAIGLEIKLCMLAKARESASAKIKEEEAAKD

[8] = target: T2, DNA (cytosine-5)-methyltransferase 3A (Homo sapiens, UniProt Q9Y6K1); test: Inhibition of C-terminal biotin-labelled human DNMT3A by multilabel plate reader analysis
T2 sequence (Q9Y6K1 whole entry, looked up): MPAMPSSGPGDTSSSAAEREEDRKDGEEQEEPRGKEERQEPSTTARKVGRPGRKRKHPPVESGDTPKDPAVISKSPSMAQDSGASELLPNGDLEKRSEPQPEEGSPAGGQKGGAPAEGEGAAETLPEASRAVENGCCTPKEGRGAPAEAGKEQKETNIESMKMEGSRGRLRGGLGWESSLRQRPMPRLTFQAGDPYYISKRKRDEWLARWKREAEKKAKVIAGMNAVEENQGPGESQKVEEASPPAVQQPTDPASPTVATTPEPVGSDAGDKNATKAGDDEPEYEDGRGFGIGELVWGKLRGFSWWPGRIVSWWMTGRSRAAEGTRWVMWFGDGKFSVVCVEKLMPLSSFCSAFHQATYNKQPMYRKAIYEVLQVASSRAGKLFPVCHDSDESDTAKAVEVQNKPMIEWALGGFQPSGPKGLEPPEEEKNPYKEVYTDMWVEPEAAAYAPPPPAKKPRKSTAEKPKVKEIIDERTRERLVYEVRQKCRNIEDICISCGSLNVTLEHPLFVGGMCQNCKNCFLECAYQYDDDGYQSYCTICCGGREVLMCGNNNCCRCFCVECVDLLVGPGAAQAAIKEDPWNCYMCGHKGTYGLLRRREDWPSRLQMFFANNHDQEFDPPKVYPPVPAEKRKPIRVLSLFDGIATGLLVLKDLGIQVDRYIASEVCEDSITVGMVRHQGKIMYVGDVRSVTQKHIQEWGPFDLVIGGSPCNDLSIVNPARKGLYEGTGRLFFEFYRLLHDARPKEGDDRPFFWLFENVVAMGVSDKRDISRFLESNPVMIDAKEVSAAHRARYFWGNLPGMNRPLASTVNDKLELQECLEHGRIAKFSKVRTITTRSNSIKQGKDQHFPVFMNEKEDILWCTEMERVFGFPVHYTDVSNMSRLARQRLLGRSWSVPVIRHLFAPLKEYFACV

HL-60 [9] = test: Antiproliferative activity against human HL-60 cells assessed as reduction cell viability incubated for 48 hrs by MTT assay; format: functional, cell-based; details: HL-60, 48 h
HeLa [10] = test: Antiproliferative activity against human HeLa cells assessed as reduction cell viability incubated for 48 hrs by MTT assay; format: functional, cell-based
HCT-116 [11] = test: Antiproliferative activity against human HCT-116 cells assessed as reduction cell viability incubated for 48 hrs by MTT assay; format: functional, cell-based; details: HCT-116, 48 h
HT-1080 [12] = test: Antiproliferative activity against human HT-1080 cells assessed as reduction cell viability incubated for 48 hrs by MTT assay; format: functional, cell-based; details: HT-1080, 48 h
WI-38 = test: Antiproliferative activity against human WI-38 cells; format: functional, cell-based
HeLa [13] = test: Antiproliferative activity against human HeLa cells; format: functional, cell-based
U2OS = test: Antiproliferative activity against human U2OS cells; format: functional, cell-based
HT-1080 [14] = test: Antiproliferative activity against human HT-1080 cells; format: functional, cell-based
[15] = Antiproliferative activity against human RPMI cells assessed as reduction cell viability incubated for 48 hrs by MTT assay; format: functional, cell-based
[16] = target: T1, DNA (cytosine-5)-methyltransferase 1; test: Inhibition of human recombinant full-length N-terminal GST tagged DNMT1 (2 to 1632 residues) expressed in Sf9 insect cells using poly(dI-dC) as substrate by hotspot assay
Raji = test: Antiproliferative activity against human Raji cells assessed as reduction cell viability incubated for 48 hrs by MTT assay; format: functional, cell-based
PC-3 = test: Antiproliferative activity against human PC-3 cells assessed as reduction cell viability incubated for 48 hrs by MTT assay; format: functional, cell-based; details: PC-3, 48 h
MDA-MB-231 = test: Antiproliferative activity against human MDA-MB-231 cells assessed as reduction cell viability incubated for 48 hrs by MTT assay; format: functional, cell-based; details: MDA-MB-231, 48 h
[17] = target: T2, DNA (cytosine-5)-methyltransferase 3A; test: Inhibition of human recombinant DNMT3A (214 to 912 residues)expressed in Sf9 insect cells using lambda DNA as substrate by scintillation/filter plate assay
SR = test: Cytotoxicity against human SR cells incubated for 24 hrs by MTT assay; format: functional
HL-60 [18] = test: Cytotoxicity against human HL-60 cells incubated for 24 hrs by MTT assay; format: functional
MDA-MB-435 = test: Cytotoxicity against human MDA-MB-435 cells incubated for 24 hrs by MTT assay; format: functional
DNA topoisomerase 1 [19] = target: T3, DNA topoisomerase 1 (Homo sapiens, UniProt P11387); test: Inhibition of human topoisomerase 1 incubated for 2 hrs by ELISA analysis
T3 sequence (P11387 whole entry): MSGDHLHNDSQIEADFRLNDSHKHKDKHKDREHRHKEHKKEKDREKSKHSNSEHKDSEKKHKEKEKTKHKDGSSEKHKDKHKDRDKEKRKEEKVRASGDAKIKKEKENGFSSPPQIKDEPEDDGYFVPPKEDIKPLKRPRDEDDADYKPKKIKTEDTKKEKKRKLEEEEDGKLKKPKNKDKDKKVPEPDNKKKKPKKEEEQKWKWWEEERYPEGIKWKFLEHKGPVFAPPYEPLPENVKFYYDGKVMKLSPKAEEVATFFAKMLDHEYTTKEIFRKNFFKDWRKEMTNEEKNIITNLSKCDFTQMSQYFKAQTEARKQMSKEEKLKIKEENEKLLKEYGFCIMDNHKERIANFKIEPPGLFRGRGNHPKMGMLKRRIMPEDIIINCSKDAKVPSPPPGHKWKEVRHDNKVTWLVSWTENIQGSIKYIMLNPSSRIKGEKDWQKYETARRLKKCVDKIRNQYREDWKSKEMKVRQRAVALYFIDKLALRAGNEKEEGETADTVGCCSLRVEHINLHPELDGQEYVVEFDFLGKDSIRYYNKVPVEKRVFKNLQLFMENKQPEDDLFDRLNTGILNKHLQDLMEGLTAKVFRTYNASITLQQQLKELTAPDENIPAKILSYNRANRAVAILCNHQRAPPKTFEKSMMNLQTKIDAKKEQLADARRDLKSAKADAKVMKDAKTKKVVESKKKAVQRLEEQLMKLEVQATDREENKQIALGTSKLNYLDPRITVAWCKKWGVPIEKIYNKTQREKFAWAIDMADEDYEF

NCI-H460 [20] = test: Antiproliferative activity against human NCI-H460 cells; format: functional, cell-based
HCT-116 [21] = test: Antiproliferative activity against human HCT-116 cells; format: functional, cell-based
U-251 = test: Antiproliferative activity against human U-251 cells; format: functional, cell-based
Histone deacetylase = test: Inhibition of HDAC (unknown origin); format: protein assay, Homo sapiens
DNA topoisomerase 1 [22] = target: T3, DNA topoisomerase 1; test: Inhibition of topoisomerase 1 (unknown origin)
[23] = Inhibition of topoisomerase 2 (unknown origin); parameters: species or system Homo sapiens
KB = test: Antiproliferative activity against human KB cells; format: functional, cell-based
[24] = Antiproliferative activity against mouse P338 cells; format: functional, cell-based
Jurkat E6.1 = test: Antiproliferative activity against human Jurkat E6.1 cells; format: functional, cell-based
A549 = test: Antiproliferative activity against human A549 cells; format: functional, cell-based
Histone deacetylase 8 = Histone deacetylase 8 (Homo sapiens, UniProt Q9BY41); test: Inhibition of HDAC8 (unknown origin)
Chain of Histone deacetylase 8 (Q9BY41 whole entry): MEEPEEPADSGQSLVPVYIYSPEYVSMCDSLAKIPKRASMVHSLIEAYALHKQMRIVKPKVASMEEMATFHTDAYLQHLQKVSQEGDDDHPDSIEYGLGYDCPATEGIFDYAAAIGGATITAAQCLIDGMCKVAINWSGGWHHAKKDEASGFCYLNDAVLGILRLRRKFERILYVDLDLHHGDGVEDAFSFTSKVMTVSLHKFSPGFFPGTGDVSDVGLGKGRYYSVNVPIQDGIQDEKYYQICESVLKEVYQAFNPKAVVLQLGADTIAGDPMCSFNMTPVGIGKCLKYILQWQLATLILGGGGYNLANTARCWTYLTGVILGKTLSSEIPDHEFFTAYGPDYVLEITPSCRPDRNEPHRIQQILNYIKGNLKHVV

B16-F10 = test: Antiproliferative activity against mouse B16-F10 cells; format: functional, cell-based
MCF7 [25] = test: Antiproliferative activity against human MCF7 cells; format: functional, cell-based
[26] = Antiproliferative activity against human MED-MEB-8A cells; format: functional, cell-based
U-266 = test: Antiproliferative activity against human U-266 cells; format: functional, cell-based
RPMI-8226 = test: Antiproliferative activity against human RPMI-8226 cells; format: functional, cell-based
NCI-H929 = test: Antiproliferative activity against human NCI-H929 cells; format: functional, cell-based
[27] = target: Protein deacetylase HDAC6 (Homo sapiens, UniProt Q9UBN7); test: Inhibition of HDAC6 (unknown origin)
Chain of Protein deacetylase HDAC6 (Q9UBN7 whole entry): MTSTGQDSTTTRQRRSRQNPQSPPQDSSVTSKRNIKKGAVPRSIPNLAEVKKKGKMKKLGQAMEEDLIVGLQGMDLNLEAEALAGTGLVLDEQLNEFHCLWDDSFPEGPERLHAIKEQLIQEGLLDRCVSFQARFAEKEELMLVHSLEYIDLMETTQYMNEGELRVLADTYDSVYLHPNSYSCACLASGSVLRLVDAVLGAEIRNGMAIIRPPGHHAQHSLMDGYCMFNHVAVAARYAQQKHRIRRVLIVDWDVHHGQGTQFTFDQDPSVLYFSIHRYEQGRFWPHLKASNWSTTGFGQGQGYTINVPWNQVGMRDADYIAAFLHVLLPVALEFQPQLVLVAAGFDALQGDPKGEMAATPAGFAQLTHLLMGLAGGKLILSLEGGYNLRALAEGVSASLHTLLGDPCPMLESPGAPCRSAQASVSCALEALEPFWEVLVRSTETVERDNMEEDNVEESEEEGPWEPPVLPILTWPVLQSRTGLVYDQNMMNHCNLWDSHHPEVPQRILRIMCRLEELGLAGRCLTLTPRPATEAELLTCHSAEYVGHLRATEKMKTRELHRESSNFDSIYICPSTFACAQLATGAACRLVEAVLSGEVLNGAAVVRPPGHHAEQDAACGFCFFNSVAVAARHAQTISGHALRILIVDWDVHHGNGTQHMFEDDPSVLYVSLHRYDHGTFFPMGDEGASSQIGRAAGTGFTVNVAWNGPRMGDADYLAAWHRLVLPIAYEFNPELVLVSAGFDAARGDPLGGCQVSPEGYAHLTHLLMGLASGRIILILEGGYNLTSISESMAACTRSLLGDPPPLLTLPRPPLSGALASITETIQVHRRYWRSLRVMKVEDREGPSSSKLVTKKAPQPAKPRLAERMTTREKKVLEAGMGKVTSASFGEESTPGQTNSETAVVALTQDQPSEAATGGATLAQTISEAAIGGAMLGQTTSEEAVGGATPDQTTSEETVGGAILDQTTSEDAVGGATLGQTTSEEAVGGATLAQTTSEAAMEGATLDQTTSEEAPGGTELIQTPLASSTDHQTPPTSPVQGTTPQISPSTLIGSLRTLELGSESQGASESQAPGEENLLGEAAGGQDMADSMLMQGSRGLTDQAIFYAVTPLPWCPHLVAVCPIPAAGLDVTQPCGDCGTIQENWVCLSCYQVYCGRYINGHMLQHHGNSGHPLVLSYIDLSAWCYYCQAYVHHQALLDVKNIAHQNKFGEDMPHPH

Question: Which results are given for `CCCCCCOc1ccc(/C=N/Nc2cc(C)nc3ccc(Cl)cc23)cc1`?
Answer: pIC50 (HepG2): 5.31; pIC50 (T-24): 5.50; pIC50 (NCI-H460 [1]): 5.49; pIC50 (MGC-803): 5.66

Question: For `CCN(CC)CCNc1nc2c(Nc3ccccc3)c3ccccc3nc2s1`, which GI50 (SW480) is on record?
Answer: Its GI50 is 15900 nM.

Question: And the GI50 (C-33-A)?
Answer: The GI50 was 15900 nM.

Question: What about the GI50 [2] of the same compound?
Answer: The GI50 was 15900 nM.

Question: What about the GI50 (K-562R) of the same compound?
Answer: The GI50 was 15900 nM.

Question: And the GI50 (SW-620)?
Answer: The GI50 was 15900 nM.

Question: What about the GI50 (HeLa [3]) of the same compound?
Answer: Its GI50 is 15900 nM.

Question: And the GI50 (MCF7 [4])?
Answer: Its GI50 is 15900 nM.

Question: With `COc1ccc2c(c1)/C(=N\OCCN1CCCC1)c1c-2c(O)nc2ccccc12` as the compound, how does the bioavailability [5] read?
Answer: The bioavailability was 10.9%.

Question: With `O=C(Nc1ccc(Nc2ccnc3ccccc23)cc1)c1cccc(Nc2ccnc3ccccc23)c1` as the compound, how does the pIC50 (M14) read?
Answer: Its pIC50 is 5.33.

Question: And the pIC50 (NCI-H1299)?
Answer: Its pIC50 is 5.28.

Question: What about the pIC50 (U-937) of the same compound?
Answer: Its pIC50 is 6.15.

Question: What about the pIC50 (MCF7 [6]) of the same compound?
Answer: The pIC50 was 6.52.

Question: And the pIC50 [7]?
Answer: The pIC50 was 4.57.

Question: What about the pIC50 [8] of the same compound?
Answer: Its pIC50 is 6.10.

Question: What about the pIC50 (HL-60 [9]) of the same compound?
Answer: Its pIC50 is 5.80.

Question: What about the pIC50 (HeLa [10]) of the same compound?
Answer: Its pIC50 is 5.70.

Question: And the pIC50 (HCT-116 [11])?
Answer: Its pIC50 is 5.82.

Question: And the pIC50 (HT-1080 [12])?
Answer: The pIC50 was 5.57.

Question: With `NCCCOc1cc(NC(=O)c2cc(Cl)cc(C(=O)Nc3cc(OCCCN)c4ccccc4n3)n2)nc2ccccc12` as the compound, how does the pIC50 (WI-38) read?
Answer: Its pIC50 is 6.52.

Question: And the pIC50 (HeLa [13])?
Answer: The pIC50 was 6.52.

Question: And the pIC50 (U2OS)?
Answer: The pIC50 was 6.52.

Question: And the pIC50 (HT-1080 [14])?
Answer: Its pIC50 is 6.52.

Question: With `O=C(Nc1ccc(NC(=O)c2ccc(Nc3ccnc4ccccc34)cc2)cc1)OCc1ccccc1` as the compound, how does the pIC50 [15] read?
Answer: Its pIC50 is 5.62.

Question: What about the pIC50 (U-937) of the same compound?
Answer: The pIC50 was 6.40.

Question: What about the pIC50 [16] of the same compound?
Answer: Its pIC50 is 4.17.

Question: What about the pIC50 (Raji) of the same compound?
Answer: Its pIC50 is 6.40.

Question: And the pIC50 (PC-3)?
Answer: Its pIC50 is 6.05.

Question: And the pIC50 (MDA-MB-231)?
Answer: The pIC50 was 6.05.

Question: And the pIC50 [17]?
Answer: The pIC50 was 4.77.

Question: With `N#CC1=C(N)Oc2c(ccc3ccccc23)C1c1cc2ccccc2n2nnnc12` (stereo not drawn) as the compound, how does the GI50 (SR) read?
Answer: The GI50 was 232 nM.

Question: And the GI50 (HL-60 [18])?
Answer: The GI50 was 260 nM.

Question: What about the GI50 (MDA-MB-435) of the same compound?
Answer: Its GI50 is 300 nM.

Question: What about the pIC50 (DNA topoisomerase 1 [19]) of the same compound?
Answer: The pIC50 was 6.56.

Question: What does the source list for `CC1(C)CC(=O)Nc2ccc(C(=O)NCC3CCC(/C=C/C(=O)NO)CC3)cc21` (stereo not drawn)?
Answer: pIC50 (NCI-H460 [20]): 9.00; pIC50 (HCT-116 [21]): 6.22; pIC50 (U-251): 9.22; IC50 (Histone deacetylase): 1.5 nM

Question: With `CN(C)CCNc1nc2cc(O)ccc2c2c1C(=O)c1ccccc1-2` as the compound, how does the pIC50 (DNA topoisomerase 1 [22]) read?
Answer: Its pIC50 is 5.70.

Question: And the pIC50 [23]?
Answer: Its pIC50 is 5.19.

Question: And the pIC50 (KB)?
Answer: Its pIC50 is 8.02.

Question: What about the pIC50 [24] of the same compound?
Answer: The pIC50 was 8.96.

Question: With `O=C(Nc1cccc(Nc2ccnc3ccccc23)c1)c1cccc(Nc2ccnc3ccccc23)c1` as the compound, how does the pIC50 (U-937) read?
Answer: Its pIC50 is 5.82.

Question: Which results are given for `COc1cc(NC(=O)NOCCCCCC(=O)NO)c2nc(OC)cc(C)c2c1`?
Answer: pIC50 (Jurkat E6.1): 5.14; pIC50 (A549): 5.04; pIC50 (Histone deacetylase 8): 8.76; pIC50 (HeLa [13]): 4.96; pIC50 (B16-F10): 5.01; pIC50 (MCF7 [25]): 4.94; pIC50 [26]: 6.23

Question: Which results are given for `O=C(/C=C/c1cccc(S(=O)(=O)c2ccc3ccccc3n2)c1)NO`?
Answer: pIC50 (A549): 6.57; pIC50 (U-266): 4.39; pIC50 (RPMI-8226): 5.13; pIC50 (NCI-H929): 5.04; pIC50 [27]: 9.54
